In the COVID Moonshot data (paper PMC7615835):
Values joined by “and” are separate entries in the source; they are usually repeats but may differ in a detail not shown here. Equal values may be shown once.

target: SARS-CoV-2 Main Protease (SARS-CoV-2) (UniProt P0DTD1)

Going from `C[C@H](N)C(=O)N[C@@H](CCC(N)=O)C(=O)O` (stereo in doubt) to `CCOC(=O)CNC(=O)C(c1cccnc1)N(C(=O)c1cocn1)c1ccc(C(C)(C)C)cc1` (centres undefined), the IC50 falls from over 99 µM to 9.53 µM.

Going from `N#CCC(=O)N1CCc2ccc(Cl)cc2C1C(=O)Nc1cncc2ccccc12` (centres undefined) to `N#CCS(=O)(=O)N1Cc2ccc(Cl)cc2C(C(=O)Nc2cncc3ccccc23)C1` (centres undefined), the IC50 falls from 6.51 µM to 0.33 µM (20-fold).

First: COCCN(C)S(=O)(=O)N1Cc2ccc(Cl)cc2C2(CCN(c3cncc4ccccc34)C2=O)C1 (centres undefined)
Second: COC1(c2cccc(Cl)c2)CCN(c2cncc3ccccc23)C1=O (centres undefined)
The IC50 of the first is 2.1-fold higher: 0.993 µM for the first, 0.467 µM for the second. The second is the more potent here.

First: Cc1sc(Nc2cc(Cl)cc(CC(=O)Nc3cncc4ccccc34)c2)nc1-c1ccc(Cl)cc1
Second: Cc1ccc2cccc(Nc3cc(Cl)cc(CC(=O)Nc4cncc5ccccc45)c3)c2n1
The IC50 of the first is 1.7-fold lower: 2.82 µM for the first, 4.93 µM for the second. The first is the more potent here.

Compared with `COC1(c2cccc(Cl)c2)CCCN(c2cncc3ccccc23)C1=O` (centres undefined), `O=C(Nc1cncc2ccccc12)C12CC(C1)Oc1ccc(Cl)cc12` is 27-fold higher in IC50: 2.08 µM for the first, 56.4 µM for the second.

`O=C(Cc1cc(Cl)cc(Nc2cc(C(F)(F)F)ccc2Cl)c1)Nc1cncc2ccccc12` and `O=C(Cc1cc(Cl)cc(Nc2ccc(C(F)(F)F)cc2[N+](=O)[O-])c1)Nc1cncc2ccccc12` are within 1.5-fold of each other in IC50: 1.61 µM for the first, 2.24 µM for the second.

`Cc1ccncc1NC(=O)Cc1cc(C#N)cc(OC2CC(=O)N2)c1` (centres undefined) and `Cc1ccncc1NC(=O)Cc1cc(Cl)cc(-c2ccc(C3CC3(F)F)cc2)c1` (centres undefined) are within 1.5-fold of each other in IC50: 11.6 µM for the first, 8.44 µM for the second.

`CNC(=O)CN1CC(C(=O)Nc2cncc3ccc(C(C)(C)O)cc23)c2cc(Cl)ccc2C1=O` (centres undefined) and `CNC(=O)CN1CC(C(=O)Nc2cncc3ccc(S(C)(=O)=O)cc23)c2cc(Cl)ccc2C1=O` (centres undefined) are within 1.5-fold of each other in IC50: 0.384 µM for the first, 0.33 µM for the second.

Going from `O=C(Nc1cncc2cc(F)ccc12)[C@H]1CCS(=O)(=O)c2ccc(Cl)cc21` (stereo in doubt) to `CS(=O)(=O)Nc1ccc2cncc(NC(=O)C3CCS(=O)(=O)c4ccc(Cl)cc43)c2c1` (centres undefined), the IC50 falls from 24.5 µM to 0.204 µM (120-fold). The second is the more potent here.

First: CC(C)(C)c1ccc(N(C(=O)c2cocn2)C(C(=O)NCc2ccncc2)c2cccnc2)cc1 (centres undefined)
Second: CC(C)(C)c1ccc(N(C(=O)c2c[nH]nn2)C(C(=O)NCCc2cccc(F)c2)c2cccnc2)cc1 (centres undefined)
The IC50 of the first is higher: over 99.5 µM for the first, 1.17 µM for the second.

Going from `O=C(Cc1cc(Cl)cc(NCCCN2CCS(=O)(=O)CC2)c1)Nc1cncc2ccccc12` to `O=C(Cc1cc(Cl)cc(NCCc2ccccc2C(F)(F)F)c1)Nc1cncc2ccccc12`, the IC50 rises from 1.92 µM to 2.97 µM (1.5-fold). The first is the more potent here.

Going from `O=C(Cc1cccc(Cl)c1)Nc1c(O)cnc2ccccc12` to `O=C(Cc1cccc(Cl)c1)Nc1cccc2[nH]ncc12`, the IC50 rises from 8.44 µM to over 99.5 µM.

`O=C(Cc1cc(Cl)cc(Nc2cncc(Br)c2)c1)Nc1cncc2ccccc12` and `O=C(Cc1cc(Cl)cc(Nc2ccc(F)cc2Br)c1)Nc1cncc2ccccc12` are within 1.5-fold of each other in IC50: 2.16 µM for the first, 2.04 µM for the second.

Compared with `CC1(C(=O)Nc2cncc3cc(S(C)(=O)=O)ccc23)CN(CC(=O)NC2CC2)S(=O)(=O)c2ccc(Cl)cc21` (centres undefined), `CS(=O)(=O)c1ccc2c(NC(=O)C3CN(CC(=O)NC4CC4)C(=O)c4ccc(Cl)cc43)cncc2c1` (centres undefined) is 2.2-fold lower in IC50: 0.468 µM for the first, 0.214 µM for the second.

Going from `O=C(NCC1CCCCC1)[C@@H]1CN(C(=O)CCl)CCN1S(=O)(=O)c1ccsc1` (stereo in doubt) to `O=C(Nc1ccc(F)cc1)[C@@H]1CN(C(=O)CCl)CCN1S(=O)(=O)c1ccsc1` (stereo in doubt), the IC50 falls from 1.1 µM to 0.593 µM (1.9-fold).

First: COc1ccc(CNc2cc(Cl)cc(CC(=O)Nc3cncc4ccccc34)c2)c(OC)c1
Second: COc1cc2c(cc1OC)CN(c1cc(Cl)cc(CC(=O)Nc3cncc4ccccc34)c1)CC2
The IC50 of the first is 2-fold higher: 3.37 µM for the first, 1.65 µM for the second.

`Cn1c(C(=O)N(c2ccc(C(C)(C)C)cc2)C(C(=O)NCCc2cccc(F)c2)c2cccnc2)c[nH]c1=O` (centres undefined) and `CC(C)(C)c1ccc(N(C(=O)c2cc(=O)n3ncnc3[nH]2)C(C(=O)NCCc2cccc(F)c2)c2cccnc2)cc1` (centres undefined) cannot be ordered by IC50: over 99.5 µM for the first, over 99.5 µM for the second.

Going from `CC1(c2ccc(N(C(=O)c3cocn3)C(C(=O)NCCc3cccc(F)c3)c3cccnc3)cc2)OCCO1` (centres undefined) to `CCNC(=O)c1ccc(N(C(=O)c2cocn2)C(C(=O)NCCc2cccc(F)c2)c2cccnc2)cc1` (centres undefined), the IC50 rises from 83.1 µM to over 99.5 µM. The first is the more potent here.

`O=C(CCl)N1CCN(Cc2cc(O)cc(Cl)c2)CC1` and `CC(=O)NCCc1c[nH]c2c(CN3CCN(C(=O)CCl)CC3)cccc12` are within 1.5-fold of each other in IC50: 12.9 µM for the first, 17.4 µM for the second.

Going from `O=C(NCC(c1ccccc1)c1c[nH]c2ccccc12)c1cnccn1` (centres undefined) to `O=C(NNc1nc2ccccc2[nH]1)c1cc(O)nc2ccccc12`, the IC50 falls from over 99.5 µM to 25.8 µM.

First: CC(C)(C)c1ccc(N(C(=O)C2CCCO2)C(C(=O)NCCc2cccc(F)c2)c2cccnc2)cc1 (centres undefined)
Second: CC(C)(C)c1ccc(N(C(=O)c2cc(CO)n[nH]2)C(C(=O)NCCc2cccc(F)c2)c2cccnc2)cc1 (centres undefined)
The IC50 of the first is 3.4-fold lower: 5.56 µM for the first, 18.8 µM for the second.

First: COc1ccc(-c2ccccc2S(=O)(=O)N2CCN(C(=O)CCl)CC2)cc1
Second: Cc1ccc(S(=O)(=O)N2CCN(C(=O)CCl)C[C@H]2C(=O)NCc2ccccc2)cc1 (stereo in doubt)
The IC50 of the first is 6.6-fold lower: 0.551 µM for the first, 3.65 µM for the second.

Going from `O=C1NC2(COc3ccc(Cl)cc32)C(=O)N1c1cncc2ccc(F)cc12` (centres undefined) to `CC1(C(=O)Nc2cncc3ccc(F)cc23)CNS(=O)(=O)c2ccc(Cl)cc21` (centres undefined), the IC50 falls from 1.38 µM to 0.441 µM (3.1-fold).

Going from `O=C(Cc1cccc(Cl)c1)Nc1cn[nH]c1` to `Cc1[nH]ncc1CC(=O)Nc1cccc(Cl)c1`, the IC50 falls from over 99.5 µM to 54.6 µM.

Compared with `O=C(Cc1cccc(Cl)c1)NC1CC(=O)c2ccccc21` (centres undefined), `O=C(Cc1cccc(Cl)c1)Nc1cncn2cnnc12` is higher in IC50: 53.8 µM for the first, over 99.5 µM for the second. The first is the more potent here.

Going from `CC1NC(=O)c2ccc(Cl)cc2C1C(=O)Nc1cncc2ccc(S(C)(=O)=O)cc12` (centres undefined) to `CS(=O)(=O)CC1(C(=O)Nc2cncc3ccccc23)CCOc2ccc(Cl)cc21` (centres undefined), the IC50 rises from 1.99 µM to 15.6 µM (7.8-fold). The first is the more potent here.

Going from `CCCOc1cc(Cl)cc2c1OCCC2C(=O)Nc1cncc2ccccc12` (centres undefined) to `Cc1c(Cl)ccc2c1[C@H](C(=O)Nc1cncc3ccccc13)CCO2` (stereo in doubt), the IC50 falls from 5.63 µM to 3.67 µM (1.5-fold).

Compared with `Cn1ncc2cncc(NC(=O)C3CN(S(=O)(=O)CC4(C#N)CC4)Cc4ccc(Cl)cc43)c21` (centres undefined), `N#CC1(CS(=O)(=O)N2Cc3ccc(Cl)cc3C(C(=O)Nc3cncc4c[nH]nc34)C2)CC1` (centres undefined) is 2.4-fold lower in IC50: 2.53 µM for the first, 1.05 µM for the second.

Going from `C=CC(=O)N(c1ccc(C(F)(F)F)cc1)C(C(=O)NCCc1cccc(F)c1)c1cccnc1` (centres undefined) to `Cc1nnn(-c2ccc(N(C(=O)c3cocn3)C(C(=O)NCCc3cccc(F)c3)c3cccnc3)cc2)n1` (centres undefined), the IC50 rises from 20.1 µM to 33.2 µM (1.7-fold). The first is the more potent here.

Going from `O=C(NCCc1cccc(F)c1)C(c1cccnc1)N(C(=O)c1cnc[nH]1)c1ccc2c(c1)CCC(=O)N2CC(F)F` (centres undefined) to `Cc1nc2ccc(N(C(=O)c3cnc[nH]3)C(C(=O)NCCc3cccc(F)c3)c3cccnc3)cc2o1` (centres undefined), the IC50 rises from 47.8 µM to over 99 µM.

First: Cc1ccncc1NC(=O)CN1C(=O)COc2ccc(Cl)cc21
Second: O=C(Nc1cncc2ccccc12)[C@H]1COc2ccc(Cl)cc2C1 (stereo in doubt)
The IC50 of the first is lower: 59.9 µM for the first, over 99.5 µM for the second.

Going from `O=C(Nc1cncc2ccccc12)C1(CCC2CC2)CCOc2ccc(Cl)cc21` (centres undefined) to `Cn1ccnc1CN(C(=O)CC1(C(=O)Nc2cncc3ccccc23)CCOc2ccc(Cl)cc21)C1CC1` (centres undefined), the IC50 falls from 40.7 µM to 5.05 µM (8.1-fold).

`Cc1ccc2ccccc2c1Nc1cc(Cl)cc(CC(=O)Nc2cncc3ccccc23)c1` and `CC(C)c1cccc(C(C)C)c1Nc1cc(Cl)cc(CC(=O)Nc2cncc3ccccc23)c1` are within 1.5-fold of each other in IC50: 2.52 µM for the first, 1.82 µM for the second.

`C=CC(=O)N(c1ccc(C(C)(C)C)cc1)C(C(=O)NC(C)(C)C)c1cccnc1` (centres undefined) and `C=CC(=O)N(Cc1ccccc1Cl)C(C(=O)NC(C)(C)C)c1cccnc1` (centres undefined) cannot be ordered by IC50: over 99 µM for the first, over 99.5 µM for the second.

`CCN(CC)S(=O)(=O)c1ccc(S(=O)(=O)N2CCN(S(N)(=O)=O)CC2)cc1` and `Cc1ccc(S(=O)(=O)NCC(=O)N2CCC(NS(N)(=O)=O)CC2)cc1` cannot be ordered by IC50: over 99.5 µM for the first, over 99.5 µM for the second.

`CN(C)C(=O)C(CNC(=O)[C@@H](c1ccccc1)N1Cc2ccccc2C1=O)c1ccccc1` (stereo in doubt) and `O=C(Nc1ccccc1)[C@@H](c1ccccc1)N1Cc2ccccc2C1=O` (stereo in doubt) cannot be ordered by IC50: over 99.5 µM for the first, over 99.5 µM for the second.

Going from `O=C(CCl)N1CCN(S(=O)(=O)c2ccsc2)[C@H](C(=O)N2CCN(c3ccccc3)CC2)C1` (stereo in doubt) to `O=C(NCC(=O)N1CCCC1c1nc2ccccc2[nH]1)C1CCCC1` (centres undefined), the IC50 rises from 1.98 µM to over 99.5 µM.

`COc1ccc(C(Cc2ccsc2)C(=O)Nc2n[nH]c3ccccc23)cc1` (centres undefined) and `N#Cc1ccc(CC(=O)Nc2cncc3ccccc23)cc1` cannot be ordered by IC50: over 99.5 µM for the first, over 99.5 µM for the second.

`CN1CCN(c2ncc(C(C(=O)NCCc3cccc(F)c3)N(C(=O)c3cocn3)c3ccc(C(C)(C)C)cc3)cn2)CC1` (centres undefined) and `CN(C)c1ncc(C(C(=O)NCCc2cccc(F)c2)N(C(=O)c2cocn2)c2ccc(C(C)(C)C)cc2)cn1` (centres undefined) cannot be ordered by IC50: over 99.5 µM for the first, over 99.5 µM for the second.

Going from `O=C(Cn1nnc2ccccc21)N(Cc1ccccn1)c1cnc(-c2ccccc2)nc1` to `CCC(=O)Nc1ccc(N(Cc2ccccc2)C(=O)Nn2nnc3ccccc32)cc1`, the IC50 falls from over 99.5 µM to 3.59 µM.

`O=C(Cc1cc(Cl)cc(Nc2ccc(N3CCOCC3=O)cc2)c1)Nc1cncc2ccccc12` and `Cc1cc(Br)c(Nc2cc(Cl)cc(CC(=O)Nc3cncc4ccccc34)c2)c([N+](=O)[O-])c1` are within 1.5-fold of each other in IC50: 1.99 µM for the first, 1.94 µM for the second.

Compared with `Nc1nn(C(=O)Cc2cccc(Cl)c2)c2ccc(F)cc12`, `CNC(=O)CN1Cc2ccc(Cl)cc2C(C(=O)Nc2cncc3cc(COC)ccc23)C1` (centres undefined) is lower in IC50: over 99.5 µM for the first, 0.119 µM for the second.

`C=CC(=O)Nc1cc(C(=O)NC[C@H](Cc2ccccc2)c2ccccn2)ccc1O` (stereo in doubt) and `C=CC(=O)N(Cc1ccccc1Cl)C(C(=O)NC(C)(C)C)c1cncc2ccccc12` (centres undefined) cannot be ordered by IC50: over 99.5 µM for the first, over 99.5 µM for the second.

Going from `Cn1c(=O)c2cc(C(=O)N(c3ccc(C(C)(C)C)cc3)C(C(=O)NCCc3cccc(F)c3)c3cccnc3)n(C)c2n(C)c1=O` (centres undefined) to `CNC(=O)CN1C[C@]2(CC(=O)N(c3cncc4ccccc34)C2=O)c2cc(Cl)ccc2C1=O` (stereo in doubt), the IC50 falls from over 99.5 µM to 84.6 µM. The second is the more potent here.

`CC(NCc1cnc2c(cnn2C)c1)c1nc2ccccc2s1` (centres undefined) and `CC(NCc1cnc2ccccn12)c1nnc2ccccn12` (centres undefined) cannot be ordered by IC50: over 99.5 µM for the first, over 99.5 µM for the second.

Compound `CN1Cc2c(Cl)cc(Cl)cc2[C@H](c2cccc(S(=O)(=O)NCCOCCOCCNC(=O)NCCCCNC(=O)NCCOCCOCCNS(=O)(=O)c3cccc([C@@H]4CN(C)Cc5c(Cl)cc(Cl)cc54)c3)c2)C1` (stereo in doubt) has an IC50 of over 99 µM.

With `COC(=O)c1ccc(-c2cc(Cl)cc(CC(=O)Nc3cnccc3C)c2)c(OC)c1` the IC50 was 9.62 µM and 16.8 µM.
For `CC1(CS(=O)(=O)N2Cc3ccc(Cl)cc3C(C(=O)Nc3cncc4cc(S(C)(=O)=O)ccc34)C2)CS(=O)(=O)C1` (centres undefined), the IC50 was 0.0836 µM and 0.147 µM.
`COc1ccccc1OCCC(=O)Nc1cncc2ccccc12` was tested, and the IC50 was 93.6 µM and > 99.5 µM.
